# Molecular target: T1, TRPV4 channel receptor (Homo sapiens, UniProt Q9HBA0)
# T1 construct: expressed in transfected cells; host or cells: HEK cells
# Assay: FLIPR assay using TRPV4 expressing HEK cells
# Assay type: cell-based
# Details: FLIPR method; pEC50 = −log10(EC50 μM)
# From the text: Other techniques used to measure TRPV4 channel receptor activation in chondrocytes include, but are not limited to: FLIPR assay, measuring a compound's capability to reduce the amount of ADAMTSs produced and/or released in response to a catabolic stimulus by a cell comprising a TRPV4 channel receptor; measuring a compound's capability to reduce the amount of MMPs produced and/or released in response to a catabolic stimulus by a cell comprising a TRPV4 channel receptor; measuring a compound's capability to effect the amount of nitric oxide (NO) produced in response to a catabolic stimulus by a cell comprising a TRPV4 channel receptor; and measuring a compound's capability to attenuate the inhibition of matrix synthesis in response to a catabolic stimulus by a cell comprising a TRPV4 channel receptor .
# All exemplary compounds of the present invention were assessed using at least one of the biological assays presented above. Compounds presented in the Examples had pEC50 values between about 4.5 to about 7.0 as measured by Flex Station in using bovine articular cartilage and EC50 values of about 0.1 μM to about 30 μM as measured by FLIPR assay using TRPV4 expressing HEK cells.
# T1 sequence (Q9HBA0 whole entry): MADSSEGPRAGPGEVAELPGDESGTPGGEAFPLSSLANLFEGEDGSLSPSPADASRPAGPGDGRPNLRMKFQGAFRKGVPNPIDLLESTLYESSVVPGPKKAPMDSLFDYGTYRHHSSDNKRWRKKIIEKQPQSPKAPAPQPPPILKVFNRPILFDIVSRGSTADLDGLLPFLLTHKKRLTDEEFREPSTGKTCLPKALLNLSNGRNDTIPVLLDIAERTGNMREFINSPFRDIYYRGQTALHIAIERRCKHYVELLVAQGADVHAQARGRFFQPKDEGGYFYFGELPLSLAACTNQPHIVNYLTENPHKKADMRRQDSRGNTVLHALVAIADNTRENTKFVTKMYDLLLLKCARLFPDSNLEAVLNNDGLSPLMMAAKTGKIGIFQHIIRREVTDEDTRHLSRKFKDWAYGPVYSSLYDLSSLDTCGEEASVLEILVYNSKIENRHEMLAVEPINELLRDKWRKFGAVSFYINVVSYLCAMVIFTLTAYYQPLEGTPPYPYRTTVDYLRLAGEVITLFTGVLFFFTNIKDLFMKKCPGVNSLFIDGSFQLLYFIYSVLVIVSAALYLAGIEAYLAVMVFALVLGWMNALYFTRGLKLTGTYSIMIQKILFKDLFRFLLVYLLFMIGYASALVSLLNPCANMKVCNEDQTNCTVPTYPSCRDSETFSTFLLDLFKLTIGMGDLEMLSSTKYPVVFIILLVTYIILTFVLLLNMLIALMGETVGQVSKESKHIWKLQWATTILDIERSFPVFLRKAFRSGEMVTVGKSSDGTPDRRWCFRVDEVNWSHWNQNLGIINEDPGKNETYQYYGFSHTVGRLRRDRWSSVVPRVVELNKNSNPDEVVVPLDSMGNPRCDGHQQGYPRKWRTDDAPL
row,Compound,EC50 [µM]
1,"CC(C)C[C@H](NC(=O)c1cc2ccccc2s1)C(=O)NCCCN(C)S(=O)(=O)c1c(Cl)cc(Cl)cc1Cl [Example 17, N-((1S)-3-methyl-1-{[(3-{methyl[(2,4,6-trichlorophenyl)sulfonyl]amino}propyl)amino]carbonyl}butyl)-1-benzothiophene-2-carboxamide]",1 to 7.94
2,"CC(C)C[C@H](NC(=O)c1cn2nc(Cl)ccc2n1)C(=O)NCCCN(C)S(=O)(=O)c1ccccc1C#N [Example 71, 6-chloro-N-{(1S)-1-[({3-[[(2-cyanophenyl)sulfonyl](methyl)amino]propyl}amino)carbonyl]-3-methylbutyl}imidazo[1,2-b]pyridazine-2-carboxamide]",10 to 20
3,"CC(C)C[C@H](NC(=O)c1cc2ccccc2s1)C(=O)NCCCN(C)S(=O)(=O)c1ccc(F)cc1Cl [Example 6, N-{(1S)-1-[({3-[[(2-chloro-4-fluorophenyl)sulfonyl](methyl)amino]propyl}amino)carbonyl]-3-methylbutyl}-1-benzothiophene-2-carboxamide]",0.1 to 0.794

# Molecular target: T2, TRPV4 channel receptors (Bos taurus, UniProt A0A8F4X677)
# T2 construct: obtained using this method in bovine articular chondrocytes; endogenous in cells; host or cells: bovine articular chondrocytes (primary)
# T2 sequence (A0A8F4X677 1-871): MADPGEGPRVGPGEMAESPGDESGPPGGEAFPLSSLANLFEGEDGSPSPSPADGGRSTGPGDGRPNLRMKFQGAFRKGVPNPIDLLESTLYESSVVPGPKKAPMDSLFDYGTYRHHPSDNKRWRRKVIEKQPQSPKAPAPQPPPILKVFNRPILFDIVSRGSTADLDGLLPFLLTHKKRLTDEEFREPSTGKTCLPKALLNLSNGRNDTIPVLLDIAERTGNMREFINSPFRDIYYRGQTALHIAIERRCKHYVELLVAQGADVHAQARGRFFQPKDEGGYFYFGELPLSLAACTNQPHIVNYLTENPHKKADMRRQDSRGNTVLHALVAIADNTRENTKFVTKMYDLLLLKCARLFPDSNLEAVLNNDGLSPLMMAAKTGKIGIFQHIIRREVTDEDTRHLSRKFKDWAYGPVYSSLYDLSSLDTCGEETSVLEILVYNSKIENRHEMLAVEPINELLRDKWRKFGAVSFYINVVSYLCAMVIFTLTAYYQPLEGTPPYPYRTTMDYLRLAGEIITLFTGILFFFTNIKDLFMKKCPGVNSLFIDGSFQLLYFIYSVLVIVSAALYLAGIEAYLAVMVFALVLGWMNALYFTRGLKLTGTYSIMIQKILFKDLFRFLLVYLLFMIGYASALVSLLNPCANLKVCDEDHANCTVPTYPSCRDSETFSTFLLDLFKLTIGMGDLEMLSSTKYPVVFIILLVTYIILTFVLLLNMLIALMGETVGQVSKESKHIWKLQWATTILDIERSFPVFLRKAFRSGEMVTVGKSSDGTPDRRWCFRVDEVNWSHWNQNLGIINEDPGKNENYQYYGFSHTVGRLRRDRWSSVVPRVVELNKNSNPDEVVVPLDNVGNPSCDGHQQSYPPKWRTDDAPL
# Assay: Ca2+ influx by Fura-2 fluorescence on a FlexStation in bovine articular chondrocytes
# Assay type: cell-based
# Details: Fura-2, FlexStation
# From the text: Ca^2+influx mediated through TRPV4 channel receptors can be measured using articular chondrocytes from such species as, but not limited to, human, rat, canine, rabbit, monkey, and bovine, using standard techniques in the art such as, but not limited to, Fura-2 (Invitrogen/Molecular Probes, Eugene, Oreg.) fluorescence using a FlexStation (manufactured by Molecular Devices, Sunnyvale, Calif.). Table 1 lists biological data for several representative compounds obtained using this method in bovine articular chondrocytes.
row,Compound,EC50 [µM]
1,"CC(C)C[C@H](NC(=O)c1cc2ccccc2s1)C(=O)NCCCN(C)S(=O)(=O)c1sccc1C#N [Example 13, N-{(1S)-1-[({3-[[(3-cyano-2-thienyl)sulfonyl](methyl)amino]propyl}amino)carbonyl]-3-methylbutyl}-1-benzothiophene-2-carboxamide]",1.01 to 10
2,"Cc1c(C(=O)N[C@@H](CC(C)C)C(=O)NCCCN(C)S(=O)(=O)c2ccccc2C#N)oc2cccnc12 [Example 73, N-{(1S)-1-[({3-[[(2-cyanophenyl)sulfonyl](methyl)amino]propyl}amino)carbonyl]-3-methylbutyl}-3-methylfuro[3,2-b]pyridine-2-carboxamide]",10 to 30
3,"CC(C)C[C@H](NC(=O)c1cc2ccccc2s1)C(=O)NCCCN(C)S(=O)(=O)c1ccc(F)cc1Cl [Example 6, N-{(1S)-1-[({3-[[(2-chloro-4-fluorophenyl)sulfonyl](methyl)amino]propyl}amino)carbonyl]-3-methylbutyl}-1-benzothiophene-2-carboxamide]",0.14 to 1
